Measurements reported in US6670363B1, “Azole compounds as therapeutic agents for fungal infections” (Ranbaxy Laboratories Limited, priority 2000, dated 2003).
In brackets after ≈: the same amount, converted by molar mass.

How the values were obtained:
Type in all cases: cell-based
Cryptococcus neoformans = assay: In vitro MIC, NCCLS M27A, Cryptococcus neoformans; parameters: MIC, C. neoformans I: unit not given beside the values; MIC, C. neoformans M 106: unit not given here; details: for MIC, C. neoformans I: C. neoformans strain I; for MIC, C. neoformans M 106: C. neoformans strain M 106
Candida = assay: In vitro MIC, NCCLS M27A, Candida species; parameters: MIC, Candida albicans 1.549 / MIC, Candida albicans Y-01-19 / MIC, C. krusei 766-1 / MIC, C. krusei Q. C / MIC, Candida tropicalis ATCC / MIC, C. glabrata 90030: unit not given beside the values; MIC, Candida albicans A 26 / MIC, C. parapsilosis Q. C.: unit not given here; details: for MIC, C. glabrata 90030: C. glabrata strain 90030; for MIC, C. krusei 766-1: C. krusei strain 766-1; for MIC, C. krusei Q. C: C. krusei strain Q. C; for MIC, C. parapsilosis Q. C.: C. parapsilosis strain Q. C.; for MIC, Candida albicans 1.549: Candida albicans strain 1.549; for MIC, Candida albicans A 26: Candida albicans strain A 26; for MIC, Candida albicans Y-01-19: Candida albicans strain Y-01-19
Histoplasma capsulatum = tested on: Histoplasma capsulatum
A. fumigatus s 1008 = assay: In vitro MIC, NCCLS M38P broth method (RPMI 1640/MOPS pH7), Aspergillus fumigatus; details: A. fumigatus strain 1008

Structure (SMILES) | MIC, C. neoformans I (Cryptococcus neoformans) | MIC, C. neoformans M 106 (Cryptococcus neoformans) | MIC, C. glabrata 90030 (Candida) | MIC, C. krusei 766-1 (Candida) | MIC, C. krusei Q. C (Candida) | MIC, C. parapsilosis Q. C. (Candida) | MIC, Candida albicans 1.549 (Candida) | MIC, Candida albicans A 26 (Candida) | MIC, Candida albicans Y-01-19 (Candida) | MIC, Candida tropicalis ATCC (Candida) | MIC, H. capsulatum (Histoplasma capsulatum) | MIC, A. fumigatus 1008 (A. fumigatus s 1008)
C[C@@H](n1ncn(-c2ccc(N3CCN(c4ccc(Cl)cc4)CC3)cc2)c1=O)[C@](O)(Cn1cncn1)c1ccc(F)cc1F [Compound 1, 2-{[1R2R/1S2S]-2-(2,4-Difluorophenyl)-2-hydroxy-1-methyl-3-(1H-1,2,4-triazol-1-yl)propyl}-4-{4-[4-(4-chlorophenyl)-1-piperazinyl]phenyl}-3-(2H,4H)-1,2,4-triazolone] | <0.03 | <0.03 | 0.25 | 0.25 | 0.12 | <0.03 | 0.12 | <0.03 | 0.12 | <0.03 | 0.06 µg/mL (≈ 0.0988 µM) | 0.12
C[C@@H](n1ncn(-c2ccc(N3CCN(c4ccc(Cl)cc4)CC3)cc2)c1=O)[C@@](O)(Cn1cncn1)c1ccc(F)cc1F [Compound 2, 2-{[1R2S/1S2R]-2-(2,4-Difluorophenyl)-2-hydroxy-1-methyl-3-(1H-1,2,4-triazol-1-yl)propyl}-4-{4-[4-(4-chlorophenyl)-1-piperazinyl]phenyl}-3-(2H,4H)-1,2,4-triazolone] | <0.03 | <0.03 | 0.50 | 2.00 | 1.00 | <0.03 | 1.00 | <0.03 | 0.25 | <0.03 | < 0.03 µg/mL | >16
C[C@@H](n1ncn(-c2ccc(N3CCN(c4ccc([N+](=O)[O-])cc4[N+](=O)[O-])CC3)cc2)c1=O)[C@](O)(Cn1cncn1)c1ccc(F)cc1F [Compound 3, 2-{[1R2R/1S2S]-2-(2,4-Difluorophenyl)-2-hydroxy-1-methyl-3-(1H-1,2,4-triazol-1-yl)propyl}-4-{4-[4-(2,4-dinitrophenyl)-1-piperazinyl]phenyl}-3-(2H,4H)-1,2,4-triazolone] | <0.03 | <0.03 | 0.25 | 1.00 | 0.50 | <0.03 | 0.12 | <0.03 | 0.50 | <0.03 | < 0.03 µg/mL | 0.25
C[C@@H](n1ncn(-c2ccc(N3CCN(c4ccc([N+](=O)[O-])cc4[N+](=O)[O-])CC3)cc2)c1=O)[C@@](O)(Cn1cncn1)c1ccc(F)cc1F [Compound 4, 2-{[1R2S/1S2R]-2-(2,4-Difluorophenyl)-2-hydroxy-1-methyl-3-(1H-1,2,4-triazol-1-yl)propyl}-4-{4-[4-(2,4-dinitrophenyl)-1-piperazinyl]phenyl}-3-(2H,4H)-1,2,4-triazolone] | 0.25 | 1.00 | 2.00 | >16 | >16 | 0.25 | 4.00 | <0.03 | >16 | <0.03 | 0.5 µg/mL (≈ 0.755 µM) | >16
C[C@@H](n1ncn(-c2ccc(N3CCN(c4ccccc4)CC3)cc2)c1=O)[C@](O)(Cn1cncn1)c1ccc(F)cc1F [Compound 5] | <0.03 | <0.03 | 1.00 | 0.50 | 0.12 | <0.03 | 2.00 | <0.03 | 0.12 | <0.03 | < 0.03 µg/mL | 0.50
C[C@@H](n1ncn(-c2ccc(N3CCN(c4ccccc4)CC3)cc2)c1=O)[C@@](O)(Cn1cncn1)c1ccc(F)cc1F [Compound 6, 2-{[1R2S/1S2R]-2-(2,4-Difluorophenyl)-2-hydroxy-1-methyl-3-(1H-1,2,4-triazol-1-yl)propyl}-4-[4-(1-phenylpiperazinyl)phenyl]-3-(2H,4H)-1,2,4-triazolone] | 0.25 | 2.00 | >16 | >16 | 16.0 | 0.125 | 2.00 | <0.03 | 8.00 | <0.03 | 0.12 µg/mL (≈ 0.21 µM) | >16
C[C@@H](n1ncn(-c2ccc(N3CCN(c4ccc(Cl)c(Cl)c4)CC3)cc2)c1=O)[C@](O)(Cn1cncn1)c1ccc(F)cc1F [Compound 7, 2-{[1R2R/1S2S]-2-(2,4-Difluorophenyl)-2-hydroxy-1-methyl-3-(1H-1,2,4-triazol-1-yl)propyl}-4-{4-[4-(3,4-dichlorophenyl)-1-piperzinyl]phenyl}-3-(2H,4H)-1,2,4-triazolone] | <0.03 | <0.03 | 0.12 | 0.25 | 0.12 | <0.03 | 0.25 | <0.03 | 0.12 | <0.03 | 0.12 µg/mL (≈ 0.187 µM) | 0.25
C[C@@H](n1ncn(-c2ccc(N3CCN(c4ccc(Cl)c(Cl)c4)CC3)cc2)c1=O)[C@@](O)(Cn1cncn1)c1ccc(F)cc1F [Compound 8, 2-{[1R2S/1S2R]-2-(2,4-Difluorophenyl)-2-hydroxy-1-methyl-3-(1H-1,2,4-triazol-1-yl)propyl}-4-{4-[4-(3,4-dichlorophenyl)-1-piperazinyl]phenyl}-3-(2H,4H)-1,2,4-triazolone] | 16.00 | 16.00 | >16 | >16 | >16 | 1.00 | >16 | <0.03 | >16 | >16 | 2 µg/mL (≈ 3.12 µM) | >16
Cc1nn([C@H](C)[C@@](O)(Cn2cncn2)c2ccc(F)cc2F)c(=O)n1-c1ccc(N2CCN(c3ccc(Cl)cc3Cl)CC2)cc1 [Compound 34, 2-{[1R2S/1S2R]-2-(2,4-Difluorophenyl)-2-hydroxy-1-methyl-3-(1H-1,2,4-triazol-1-yl)propyl}-4-{4-[4-(2,4-dichlorophenyl)-1-piperazinyl]phenyl}-3-(2H,4H)-5-methyl-1,2,4-triazolone] | 0.25 | <0.03 | 0.50 | 2.00 | 1.00 | 0.25 | 1.00 | <0.03 | 1.00 | <0.03 | 0.12 µg/mL (≈ 0.183 µM) | –
